Laboratory results taken from paper PMC3914206.

Assays:
panel of 442 kinases [1] = target: T1, panel of 442 kinases (Homo sapiens, UniProt O00329); format: binding; settings: Compound Concentration 10 µM
T1 construct: purchased KINOMEscan
T1 sequence (O00329 1-1044): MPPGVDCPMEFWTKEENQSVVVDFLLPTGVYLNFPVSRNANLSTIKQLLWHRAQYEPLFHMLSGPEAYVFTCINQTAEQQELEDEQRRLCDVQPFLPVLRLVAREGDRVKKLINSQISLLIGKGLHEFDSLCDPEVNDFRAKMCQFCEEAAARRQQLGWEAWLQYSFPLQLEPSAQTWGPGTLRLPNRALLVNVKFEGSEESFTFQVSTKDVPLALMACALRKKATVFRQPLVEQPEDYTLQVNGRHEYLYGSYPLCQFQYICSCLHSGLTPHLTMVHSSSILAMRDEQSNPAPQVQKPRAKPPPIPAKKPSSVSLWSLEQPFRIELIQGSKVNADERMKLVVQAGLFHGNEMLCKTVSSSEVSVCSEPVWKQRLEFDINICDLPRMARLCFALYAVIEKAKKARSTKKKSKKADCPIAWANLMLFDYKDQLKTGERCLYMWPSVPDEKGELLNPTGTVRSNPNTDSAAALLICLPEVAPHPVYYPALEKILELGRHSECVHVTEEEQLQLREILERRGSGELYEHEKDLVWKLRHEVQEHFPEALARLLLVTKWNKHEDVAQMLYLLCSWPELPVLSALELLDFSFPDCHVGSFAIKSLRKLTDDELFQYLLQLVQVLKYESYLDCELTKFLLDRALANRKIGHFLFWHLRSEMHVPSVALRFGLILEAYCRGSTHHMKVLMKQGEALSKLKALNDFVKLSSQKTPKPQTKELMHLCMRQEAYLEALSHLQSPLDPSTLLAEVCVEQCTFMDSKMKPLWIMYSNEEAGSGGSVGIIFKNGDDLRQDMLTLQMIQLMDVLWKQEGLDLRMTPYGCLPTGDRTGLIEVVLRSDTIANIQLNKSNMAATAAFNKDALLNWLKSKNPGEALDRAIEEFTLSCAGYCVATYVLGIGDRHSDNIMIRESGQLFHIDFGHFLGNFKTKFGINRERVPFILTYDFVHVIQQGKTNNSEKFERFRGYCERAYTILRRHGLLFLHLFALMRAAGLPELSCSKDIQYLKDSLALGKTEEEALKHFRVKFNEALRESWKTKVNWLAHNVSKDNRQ
From the text: (§1) We assessed the selectivity of members of this scaffold using the KINOMEscan methodology across a near comprehensive panel of 442 kinases [[18,27]].

panel of 442 kinases [2] = target: T2, panel of 442 kinases (Homo sapiens, UniProt P15056); format: binding; settings: Compound Concentration 10 µM
T2 construct: purchased KINOMEscan
T2 sequence (P15056 whole entry): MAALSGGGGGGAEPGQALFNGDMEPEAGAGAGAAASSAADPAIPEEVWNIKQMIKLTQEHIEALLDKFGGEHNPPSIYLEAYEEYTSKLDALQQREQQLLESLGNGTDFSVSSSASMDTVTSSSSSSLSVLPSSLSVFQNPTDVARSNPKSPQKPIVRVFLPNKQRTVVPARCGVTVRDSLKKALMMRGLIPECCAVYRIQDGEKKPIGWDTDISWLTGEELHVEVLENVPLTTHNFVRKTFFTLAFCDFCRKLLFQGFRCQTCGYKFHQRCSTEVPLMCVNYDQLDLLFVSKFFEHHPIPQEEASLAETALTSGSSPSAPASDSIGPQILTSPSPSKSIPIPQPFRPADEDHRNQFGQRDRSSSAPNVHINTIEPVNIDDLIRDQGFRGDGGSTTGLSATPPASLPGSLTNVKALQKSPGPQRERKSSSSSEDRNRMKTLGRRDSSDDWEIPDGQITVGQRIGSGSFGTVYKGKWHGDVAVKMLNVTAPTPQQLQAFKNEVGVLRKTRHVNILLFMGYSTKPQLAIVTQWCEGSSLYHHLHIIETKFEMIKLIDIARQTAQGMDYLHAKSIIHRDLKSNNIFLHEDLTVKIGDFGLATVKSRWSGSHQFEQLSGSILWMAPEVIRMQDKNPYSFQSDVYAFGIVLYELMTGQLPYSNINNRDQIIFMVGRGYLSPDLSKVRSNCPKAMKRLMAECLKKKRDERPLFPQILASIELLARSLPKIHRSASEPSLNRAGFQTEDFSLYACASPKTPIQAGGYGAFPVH
From the text: as §1

Structure (SMILES): COc1cc(C(=O)N2CCC(N3CCN(C)CC3)CC2)ccc1Nc1ncc2c(n1)N(C)c1ccccc1C(=O)N2C [15 (LRRK2-IN-1)]
- KINOMEscan: PIK3CD (panel of 442 kinases [1]): 62
- KINOMEscan: BRAF (panel of 442 kinases [2]): 81

Structure (SMILES): CCOc1cc(C(=O)N2CCC(N3CCN(C)CC3)CC2)ccc1Nc1ncc2c(n1)N(C1CCCC1)c1ccccc1C(=O)N2C [Compound 26]
- KINOMEscan: PIK3CD (panel of 442 kinases [1]): 91
- KINOMEscan: BRAF (panel of 442 kinases [2]): 90

Structure (SMILES): COc1cc(C(=O)N2CCC(N3CCN(C)CC3)CC2)ccc1Nc1ncc2c(n1)N(C1CCCC1)c1ccccc1C(=O)N2C [Compound 25, 11-cyclopentyl-2-((2-methoxy-4-(4-(4-methylpiperazin-1-yl)piperidine-1-carbonyl)phenyl)amino)-5-methyl-5H-benzo[e]pyrimido[5,4-b][1,4]diazepin-6(11H)-one]
- KINOMEscan: PIK3CD (panel of 442 kinases [1]): 100
- KINOMEscan: BRAF (panel of 442 kinases [2]): 100
